Results published in patent US9394338B2, “Glutathione analogs and uses thereof” (REGENTS OF THE UNIVERSITY OF MINNESOTA, priority 2011, dated 2016).

Key:
SH-SY-5Y cells = assay: cells; format: cell-based; details: for % Inhibition of Cell Growth with Aβ1-42 / % Inhibition of Cell Growth without Aβ1-42: compound 1 mM 24 h; for % Inhibition of Cell Growth with Aβ1-42: then 20 μM Aβ1-42 24 h
Method: (§1) Cytotoxicity Studies: Protection against β-amyloid 1-42 cytotoxicity in SH-SY-5Y cells was measured by standard MTT assays. SH-SY-5Y cells were seeded in 96-well plates at the density of 30,000 cells/well. After overnight incubation, the cells were exposed to GSH or Ψ-GSH at a concentration of 1 mM for 24 h at 37° C. After 24 h of incubation, the drug-containing medium was replaced with media containing 20 μM β-amyloid 1-42 peptide and the incubation was allowed to continue for additional 24 hours after the addition of the drugs. At the end of the incubation, 20 μL of MTT stock solution (5 mg/mL) was added to each well and incubated for 3 h at 37° C. The MTT reaction medium was discarded and the purple-blue MTT formazan crystals were dissolved by the addition of 100 μL of 0.1 N HCl in isopropanol. The optical density (OD), a reflection mitochondrial function of the viable cells, was read directly with a microplate reader (BioTek SynergyHT, VT, USA) at 580 nm and a reference wavelength of 680 nm. Concentration response graphs were generated for each drug using GraphPad Prism software (GraphPad Software, Inc., San Diego, Calif., USA). Results are expressed as mean percent inhibition of β-amyloid toxicity with the standard error of the mean. In another set of experiments, cells were preincubated with a glyoxalase I inhibitor, S-(p-bromobenzylglutathione) (1 mM) for 24 hours before addition of βamyloid1-42 peptide (20 μM).
as §1, with “Protection” for “Cytotoxicity Studies: Protection”, “against β-amyloid^1-42” for “against β-amyloid 1-42”, “cells/well. […]” for “cells/well. After overnight incubation, the cells were exposed to GSH or Ψ-GSH at a concentration of 1 mM for 24 h at 37° C.”, “μM β-amyloid^1-42” for “μM β-amyloid 1-42”, “20 μl,” for “20 μL”, “mean.” for “mean. In another set of experiments, cells were preincubated with a glyoxalase I inhibitor, S-(p-bromobenzylglutathione) (1 mM) for 24 hours before addition of βamyloid1-42 peptide (20 μM).”

Swiss Webster Mice = assay: ACP (acetaminophen) overdose rescue and effects on normal liver; format: in vivo; details: 370 mg/kg ACP + NAC 7.35 mmol/kg
Method: 36-Male Swiss Webster Mice (HSD) were fasted over-night and then brought to the lab at 8:00 am the following day and weighed. Food was kept out of the cages until after the final drug injection. Mice were divided into treatment groups as below in Table 2.
Thirty minutes post overdose with 370 mg/kg ACP, the following were evaluated for the groups in Table 2:
N-acetylcysteine (NAC) at 7.35 mmol/kg;
Ψ-GSH at three different doses, 3.67, 2.45 and 1.22 mmol/kg; and
examine effects of Ψ-GSH on normal liver at rescue doses.

yeast glyoxalase I = molecular target: T1, yeast glyoxalase I (Saccharomyces cerevisiae, UniProt P50107); assay: Glyoxalase I enzyme kinetics assay; format: biochemical; details: yeast Glx-I, MG, 30° C., phosphate buffer pH 6.6
T1 construct: purchased Sigma
T1 sequence (P50107 1-326): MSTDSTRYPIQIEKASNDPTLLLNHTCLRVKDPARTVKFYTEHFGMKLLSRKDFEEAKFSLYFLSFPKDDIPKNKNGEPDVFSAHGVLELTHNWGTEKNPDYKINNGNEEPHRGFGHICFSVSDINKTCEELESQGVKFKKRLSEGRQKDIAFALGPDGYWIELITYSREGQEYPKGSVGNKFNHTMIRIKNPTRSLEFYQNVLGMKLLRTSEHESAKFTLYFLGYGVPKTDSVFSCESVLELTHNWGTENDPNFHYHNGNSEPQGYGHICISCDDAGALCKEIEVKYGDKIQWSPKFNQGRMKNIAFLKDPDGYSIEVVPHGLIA
Method: Glyoxalase I Enzyme Kinetics Assay. The glutathione analog, Ψ-GSH and asparthione were examined for their ability to act as substrates for the yeast glyoxalase I mediated […] of MG. The commercial 40% methylglyoxal solution was distilled to remove polymerization products. Enzyme assays were performed (30° C., 0.05 M phosphate buffer (pH 6.6)) using a thermostated Beckman DU® 7400 spectrophotometer. Fresh solutions of GSH, Ψ-GSH and asparthione were prepared on the day of the assays with distilled, deionized water. In each assay, the cell contained a total volume of 3.0 mL which was no more than 6.0 mM with respect to methylglyoxal and 1.3 mM with respect to GSH or its analogs. […] Data were analyzed utilizing an Enzyme kinetics module of Sigmaplot 9.0 from Systat Software Inc.

N[C@@H](CCC(=O)N[C@@H](CSCc1ccc(Br)cc1)C(=O)NCC(=O)O)C(=O)O [GSBB, S-p-bromobenzylglutathione, reference compound]
cell death (SH-SY-5Y cells; 1 mM compound alone, SH-SY-5Y): 10%
viability at 1000 µM (SH-SY-5Y cells; Homo sapiens, SH-SY5Y, Aβ in combination with 1 mM GSBB, read-out: Percentage cell viability): 23.6%

CC(=O)N[C@@H](CS)C(=O)O [NAC, N-acetylcysteine, reference compound]
death of animals in the group (Swiss Webster Mice): 50%

N[C@@H](CC(=O)N[C@@H](CS)C(=O)NCC(=O)O)C(=O)O [asparthione]
slope for initial velocity vs. substrate concentration (yeast glyoxalase I): 0.0132±0.0136

Boc-γ-Gla(OtBu)-Cys-Gly-OtBu [Compound VI]
% Inhibition of Cell Growth with Aβ1-42 (SH-SY-5Y cells; SH-SY-5Y): 18%
% Inhibition of Cell Growth without Aβ1-42 (SH-SY-5Y cells; SH-SY-5Y): 2%

Boc-γ-Gla-Cys-Gly-OH [Compound V]
% Inhibition of Cell Growth with Aβ1-42 (SH-SY-5Y cells; SH-SY-5Y): 10%
% Inhibition of Cell Growth without Aβ1-42 (SH-SY-5Y cells; SH-SY-5Y): 1%

Boc-γ-Gla[-Cys(StBu)-Gly-OtBu]-OtBu [Compound 7]
% Inhibition of Cell Growth with Aβ1-42 (SH-SY-5Y cells; SH-SY-5Y): 41%
% Inhibition of Cell Growth without Aβ1-42 (SH-SY-5Y cells; SH-SY-5Y): 0%

HCl•γ-Gla[-Cys-Gly-OtBu]-OtBu [Compound VIII]
% Inhibition of Cell Growth with Aβ1-42 (SH-SY-5Y cells; SH-SY-5Y): 50%
% Inhibition of Cell Growth without Aβ1-42 (SH-SY-5Y cells; SH-SY-5Y): 1%

HCl•γ-Gla[Cys-Gly-OCyP]-OcyP [Compound X]
% Inhibition of Cell Growth with Aβ1-42 (SH-SY-5Y cells; SH-SY-5Y): 27%
% Inhibition of Cell Growth without Aβ1-42 (SH-SY-5Y cells; SH-SY-5Y): 0%

HCl•γ-Gla[Cys-Gly-OiPr]-OiPr [Compound IX]
% Inhibition of Cell Growth with Aβ1-42 (SH-SY-5Y cells; SH-SY-5Y): 31%
% Inhibition of Cell Growth without Aβ1-42 (SH-SY-5Y cells; SH-SY-5Y): 0%

N-acetyl-γ-Gla-Cys-Gly-OH [IV]
% Inhibition of Cell Growth with Aβ1-42 (SH-SY-5Y cells; SH-SY-5Y): 3%
% Inhibition of Cell Growth without Aβ1-42 (SH-SY-5Y cells; SH-SY-5Y): 0%

[γ-Gla-Cys-Gly-OH]2 [Compound XI]
% Inhibition of Cell Growth with Aβ1-42 (SH-SY-5Y cells; SH-SY-5Y): 24%
% Inhibition of Cell Growth without Aβ1-42 (SH-SY-5Y cells; SH-SY-5Y): 1%

γ-Glo-Cys-Gly-OH [II]
% Inhibition of Cell Growth with Aβ1-42 (SH-SY-5Y cells; SH-SY-5Y): 56%
% Inhibition of Cell Growth without Aβ1-42 (SH-SY-5Y cells; SH-SY-5Y): 1%

γ-Glt-Cys-Gly-OH [III]
% Inhibition of Cell Growth with Aβ1-42 (SH-SY-5Y cells; SH-SY-5Y): 55%
% Inhibition of Cell Growth without Aβ1-42 (SH-SY-5Y cells; SH-SY-5Y): 2%
